Assay results reported in patent US9206412B2, “Thioxothiazolidine inhibitors” (Colorado State University Research Foundation, priority 2012, dated 2015).
Values joined by “and” are separate entries in the source; they are usually repeats but may differ in a detail not shown here. Identical values can stand only once. Like-named read-outs stand apart in the source and are kept apart here.

Columns and labels:
[1] = biological target: yellow fever virus capping enzyme (Yellow fever virus, UniProt P03314); assay: biochemical; assay type: binding, yellow fever virus (strain 17D); settings: read-out: FP_YF_KI_AVG_YF_M
yellow fever virus capping enzyme, sequence (P03314 2507-2774 limits assumed): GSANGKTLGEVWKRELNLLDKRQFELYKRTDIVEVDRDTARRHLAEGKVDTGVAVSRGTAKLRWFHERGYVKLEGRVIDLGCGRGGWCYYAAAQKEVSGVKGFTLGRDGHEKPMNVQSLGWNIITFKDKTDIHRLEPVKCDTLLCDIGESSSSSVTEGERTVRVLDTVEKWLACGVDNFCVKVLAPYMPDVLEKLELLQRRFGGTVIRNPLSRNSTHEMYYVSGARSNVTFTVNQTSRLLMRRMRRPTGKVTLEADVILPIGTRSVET

[2] = test system: BHK-pD2hRucPac cells; assay: Cell viability (CellTiter-Glo) in replicon assay; settings: read-out: Replicon Assay_CC50_M; Table 2-1
[3] = biological target: T1, dengue virus capping enzyme (Dengue virus type 2, UniProt P29990); assay: biochemical; assay type: binding, dengue virus type 2 (strain 16681)
T1 sequence (P29990 2492-2758): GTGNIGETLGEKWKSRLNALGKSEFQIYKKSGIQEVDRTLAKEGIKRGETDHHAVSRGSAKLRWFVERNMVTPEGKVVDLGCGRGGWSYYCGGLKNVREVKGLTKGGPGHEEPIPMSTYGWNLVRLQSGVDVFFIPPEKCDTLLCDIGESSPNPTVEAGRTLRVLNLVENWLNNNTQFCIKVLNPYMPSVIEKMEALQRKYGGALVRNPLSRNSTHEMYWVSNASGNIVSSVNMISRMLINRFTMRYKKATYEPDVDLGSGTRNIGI

[4] = test system: dengue type 2 virus subgenomic replicon (BHK-pD2hRucPac); assay: Antiviral (replicon) assay, Renilla luciferase; assay type: cell-based; settings: Table 2-1; read-out: Replicon Assay_EC50_M

Compound	Ki [1]	CC50 [2]	Ki ([3]; read-out: FP_DEN_Ki_AVG_DEN_M)	EC50 [4]	Ki ([3]; Ki (GTP displacement))	Ki ([3]; read-out: Ki (GTP displacement))
COc1ccccc1C=C1SC(=S)N(C(Cc2ccccc2)C(=O)O)C1=O (racemic) [BG101]	8 µM	46 µM	9 µM	42 µM		
O=C(O)C(Cc1ccccc1)N1C(=O)C(=Cc2ccccc2Cl)SC1=S (racemic) [BG135]	5 µM	44 µM	4 µM	39 µM		
CC(C)(C)c1ccc(CC2SC(=S)N(CCC(=O)O)C2=O)cc1 (racemic) [BG296]		105 µM	10 µM	167 µM		
O=C1C(=Cc2cccc(Br)c2)SC(=S)N1CN1CCCCC1 [BG21]	27 µM		42 µM			
O=C(CN1C(=O)/C(=C/c2ccccc2Cl)SC1=S)Nc1ccccc1C(=O)O [BG100]	5 µM	49 µM	3 µM	37 µM		
C=CCOc1ccc(Cl)cc1/C=C1\SC(=S)NC1=O [BG114]	6 µM	27 µM	2 µM	23 µM		
O=C(CN1C(=O)C(=Cc2ccccc2Cl)SC1=S)Nc1ccc(C(=O)O)cc1 [BG119]	5 µM	58 µM	4 µM	42 µM		
O=C(CCN1C(=O)C(=Cc2ccc(Cl)cc2)SC1=S)Nc1ccccc1C(=O)O [BG120]	2 µM	31 µM	2 µM	23 µM		
O=C(CCN1C(=O)C(=Cc2ccc(Cl)cc2)SC1=S)Nc1cccc(C(=O)O)c1 [BG121]	5 µM	39 µM	3 µM	33 µM		
O=C(CCN1C(=O)C(=Cc2ccc(Cl)cc2)SC1=S)Nc1ccc(C(=O)O)cc1 [BG122]	5 µM	58 µM	3 µM	41 µM		
CCN(CC)c1ccc(N2C(=O)/C(=C/c3ccc(C(=O)O)cc3)SC2=S)cc1 [BG125]	3 µM	15 µM	2 µM			
O=C(O)c1ccccc1/C=C1\SC(=S)N(c2cccc(C(F)(F)F)c2)C1=O [BG129]	19 µM	47 µM	11 µM			
COc1ccc(N2C(=O)/C(=C/c3cc([N+](=O)[O-])cc(OC)c3O)SC2=S)cc1 [BG140]	2 µM	23 µM		13 µM		
COc1cc(C=C2SC(=S)NC2=O)ccc1OS(=O)(=O)c1ccccc1[N+](=O)[O-] [BG141]	2 µM	27 µM		24 µM		
CCc1ccc(C=C2SC(=O)NC2=O)cc1 [BG144]	38 µM		20 µM			
O=C1NC(=O)C(=Cc2cc3c(cc2[N+](=O)[O-])OCO3)S1 [BG145]	9 µM		8 µM			
O=C1NC(=O)C(=Cc2ccccc2[N+](=O)[O-])S1 [BG146]	66 µM		55 µM			
O=C(O)CCN1C(=O)/C(=C/c2ccc(-c3ccc(Cl)cc3Cl)o2)SC1=S [BG177]	1 µM	30 µM and 31 µM		30 µM and 26 µM		
CC(C)c1ccc(C=C2SC(=S)N(CCC(=O)O)C2=O)cc1 [BG183]	13 µM		12 µM			
CC(C)(C)c1ccc(/C=C2\SC(=S)N(CCC(=O)O)C2=O)cc1 [BG184]		61 µM		46 µM		
O=C(O)CCN1C(=O)/C(=C/c2ccc(-c3cccc(Cl)c3)o2)SC1=S [BG188]		51 µM		51 µM		
COc1ccccc1/C=C1\SC(=O)N(CC(=O)O)C1=O [BG215]		100 µM	866 µM			
O=C(O)CN1C(=O)C(=Cc2cc(Br)cc(Cl)c2O)SC1=S [BG222]	≥ 100 µM		≥ 100 µM			
O=C(O)CN1C(=O)/C(=C/c2ccc(F)c(Br)c2)SC1=S [BG224]	27 µM		27 µM			
O=C(O)CN1C(=O)C(=Cc2cc(Cl)cc(Cl)c2O)SC1=S [BG225]	≥ 100 µM		≥ 100 µM			
O=C(O)CN1C(=O)SC(=Cc2ccc(Cl)cc2)C1=O [BG226]	≥ 100 µM					
O=C(O)CN1C(=O)C(=Cc2cccc(Cl)c2Cl)SC1=S [BG227]	34 µM		27 µM			
O=C(O)CN1C(=O)/C(=C/c2ccc(Cl)c(Cl)c2)SC1=S [BG228]	16 µM		11 µM			

Compound	Ki [1]	CC50 [2]	Ki ([3]; read-out: FP_DEN_Ki_AVG_DEN_M)	EC50 [4]	Ki ([3]; Ki (GTP displacement))	Ki ([3]; read-out: Ki (GTP displacement))
O=C(O)CN1C(=O)C(=Cc2ccc(Cl)cc2Cl)SC1=S [BG229]	25 µM		24 µM			
O=C(O)CN1C(=O)C(=Cc2cc(Br)ccc2F)SC1=S [BG230]	23 µM		17 µM			
NC(=O)c1c(NC(=O)CN2C(=O)C(=Cc3ccc(Cl)cc3Cl)SC2=S)sc2c1CCCC2 [BG265]			46 µM			
CCc1ccc(/C=C2\SC(=S)N(CCC(=O)Nc3ccc(C(=O)O)cc3)C2=O)cc1 [BG273]			4 µM			
CCc1ccc(C=C2SC(=S)N(CCC(=O)Nc3ccccc3C(=O)O)C2=O)cc1 [BG274]		60 µM		63 µM		
O=C(O)CCN1C(=O)/C(=C/c2ccc(-c3ccc(Cl)c(Cl)c3)o2)SC1=S [BG281]			2 µM			
O=C(O)CCN1C(=O)C(=Cc2ccc(-c3ccc(Br)cc3)o2)SC1=S [BG286]			≥ 100 µM			
O=C(CCN1C(=O)/C(=C/c2ccccc2Cl)SC1=S)Nc1ccccc1C(=O)O [BG289]		79 µM		92 µM		
O=C(O)CCN1C(=O)/C(=C/c2ccc(-c3ccccc3Cl)o2)SC1=S [BG290]			≥ 100 µM			
O=C(CCN1C(=O)/C(=C/c2cccc(Br)c2)SC1=S)Nc1ccccc1C(=O)O [BG291]		68 µM		75 µM		
O=C(O)CCN1C(=O)C(=Cc2ccc(-c3ccccc3)o2)SC1=S [BG292]			≥ 100 µM			
CC(C)(C)c1ccc(C=C2SC(=S)N(CCC(=O)NS(C)(=O)=O)C2=O)cc1 [BG297]		86 µM	3 µM	78 µM		
COc1cccc(/C=C2\SC(=S)N(CC(=O)O)C2=O)c1OC [BG311]	34 µM	100 µM				
O=C(O)CN1C(=O)C(=CC=Cc2ccccc2)SC1=S [BG326]	≥ 100 µM		77 µM			
COc1ccc(OC)c(/C=C2\SC(=S)N(CC(=O)O)C2=O)c1 [BG-309]	≥ 100 µM	100 µM	≥ 100 µM			
COc1ccccc1C=C1SC(=S)N(CCC(=O)O)C1=O [BG-310]	44 µM	100 µM				
O=C(O)CN1C(=O)/C(=C/c2cccc(Cl)c2Cl)SC1=S [BG-317]					27 µM	
O=C(O)CN1C(=O)/C(=C/c2ccc(Cl)c(Cl)c2)SC1=S [BG-318]					11 µM and 11.3 µM	
O=C(O)CN1C(=O)/C(=C/c2ccc(Cl)cc2Cl)SC1=S [BG-319]					24 µM	
O=C(O)CCN1C(=O)C(=Cc2ccc(F)cc2)SC1=S [BG-321]	≥ 100 µM		≥ 100 µM			
CC(C)c1ccc(/C=C2\SC(=S)N(CCC(=O)O)C2=O)cc1 [BG-322]					12 µM	
O=C(O)CN1C(=O)/C(=C/c2ccccc2)SC1=S [BG-325]	≥ 100 µM		≥ 100 µM			
O=C(O)CCN1C(=O)C(=Cc2ccccc2)SC1=S [BG-327]	≥ 100 µM		≥ 100 µM			
O=C(O)CCN1C(=O)C(=Cc2ccc(Cl)c(Cl)c2)SC1=S [BG-328]	12 µM		14 µM			13.6 µM
O=C(O)CCN1C(=O)/C(=C/c2ccccc2F)SC1=S [BG-329]	≥ 100 µM		≥ 100 µM			
O=C(O)CCCN1C(=O)/C(=C/c2ccc(Cl)cc2Cl)SC1=S [BG-331]	25 µM		15 µM			
COC(=O)CCN1C(=O)C(=Cc2ccc(Cl)cc2Cl)SC1=S [BG-332]	≥ 100 µM		≥ 100 µM			
